Test systems include OVCAR-5; SK-MEL-5; HOP-62; SR; Malme-3M; MOLT-4; COLO 205; SK-MEL-2; TK-10; UACC-62; IGROV-1; HT-29; OVCAR-3; HCT-116; NCI-H226; RXF 393; DU-145; UO-31; SF-268; SNB-75.
Assay in all cases: growth of human tumour cells (NCI), 48 h

Structures are written as SMILES.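 Cultured in 96-well plates, cells were exposed to test compound for 48 hours across five concentrations. At the GI50, growth is halved.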 The source made the active and inactive calls. Cut-off read from the data, not from the text of the source: active = GI50 up to about 1.1 µM and inactive = higher. Some results are limits rather than exact numbers.

As to `CC(C)(C)c1cc(C(O)(C(=O)O)C(=O)O)cc(C(C)(C)C)c1O`, the GI50 in the test with OVCAR-5, with SK-MEL-5, in the test on HOP-62, in the test on SR, in the test on Malme-3M and with MOLT-4 was > 100 µM (inactive) in each case. Besides, the GI50 with COLO 205, in the test with SK-MEL-2, in the test with TK-10, with UACC-62, in the test with IGROV-1 and with HT-29 was > 100 µM (inactive) each time. Further, the GI50 with OVCAR-3, with HCT-116, with NCI-H226, in the test on RXF 393, with DU-145 and in the test on UO-31 was > 100 µM (inactive) in each case. For the same molecule, the GI50 in the test on SF-268 and in the test with SNB-75 was > 100 µM (inactive) in each case.
As for `CSCCC(NC(=O)OC(C)(C)C)C(=O)NCCNc1ccc(NCCNC(=O)C(CCSC)NC(=O)OC(C)(C)C)c2c1C(=O)c1ccccc1C2=O` (stereo not given), the GI50 was 5.74 µM (inactive) in the test on OVCAR-5; 3.07 µM (inactive) in the test with SK-MEL-5; 3.15 µM (inactive) with HOP-62; 2.83 µM (inactive) in the test on SR; 2.33 µM (inactive) in the test with Malme-3M; 3.44 µM (inactive) with MOLT-4. Also, the GI50 in the test on COLO 205 is 2.22 µM (inactive); in the test with SK-MEL-2 it was 14.2 µM (inactive); with TK-10, 3.38 µM (inactive); in the test on UACC-62 it was 3.8 µM (inactive); in the test with IGROV-1, 3.14 µM (inactive); in the test on HT-29, 2.64 µM (inactive). Besides, the GI50 in the test on OVCAR-3 was 7.16 µM (inactive); in the test on HCT-116, 8.71 µM (inactive); in the test on NCI-H226 it was 6.76 µM (inactive); with RXF 393, 16.3 µM (inactive); in the test on DU-145 it was 4.79 µM (inactive); in the test on UO-31, > 100 µM (inactive). Besides, the results for the GI50 in the test with SF-268 and with SNB-75 were 3.37 µM (inactive) and 2.37 µM (inactive), respectively.
Consider `Cc1cc(C)c2c(=O)n(CC(O)CN(Cc3ccccc3)CC(O)Cn3sc4nc(C)cc(C)c4c3=O)sc2n1` (stereo not given), for which the GI50 in the test with OVCAR-5 is 20.1 µM (inactive); in the test on SK-MEL-5 it was 16.4 µM (inactive); with HOP-62 it was 14.4 µM (inactive); with SR it was 8.99 µM (inactive); with Malme-3M, 14.3 µM (inactive); in the test with MOLT-4, 3.25 µM (inactive). Besides, the GI50 with COLO 205 was 7.73 µM (inactive); in the test on SK-MEL-2, 17.7 µM (inactive); in the test with TK-10 it was 17.4 µM (inactive); in the test on UACC-62 it was 16.9 µM (inactive); in the test on IGROV-1, 17.7 µM (inactive); in the test on HT-29 it was 19.6 µM (inactive). Besides, the GI50 in the test on OVCAR-3 is 16.2 µM (inactive); with HCT-116, 17.3 µM (inactive); in the test with NCI-H226, 18.5 µM (inactive); in the test with RXF 393, 18.8 µM (inactive); with DU-145, 17.9 µM (inactive); with UO-31, 17 µM (inactive). The GI50 in the test on SF-268 was 17.1 µM (inactive); with SNB-75, 15.5 µM (inactive).
Turning to `Brc1ccc(C2CC3(c4ccccc4)ON=C(c4ccccc4)N3c3ccccc3S2)cc1` (stereo not given), the GI50 was > 100 µM (inactive) with OVCAR-5; > 100 µM (inactive) in the test on SK-MEL-5; > 100 µM (inactive) in the test on HOP-62; 28.1 µM (inactive) in the test with SR; > 100 µM (inactive) in the test with Malme-3M; > 100 µM (inactive) in the test with MOLT-4. The GI50 is > 100 µM (inactive) in the test on COLO 205; > 100 µM (inactive) in the test on SK-MEL-2; > 100 µM (inactive) in the test with TK-10; > 100 µM (inactive) with UACC-62; > 100 µM (inactive) in the test with IGROV-1; 9.16 µM (inactive) in the test with HT-29. Besides, the GI50 is > 100 µM (inactive) in the test with OVCAR-3; 5.87 µM (inactive) in the test on HCT-116; > 100 µM (inactive) in the test on NCI-H226; > 100 µM (inactive) in the test on RXF 393; > 100 µM (inactive) with DU-145; > 100 µM (inactive) with UO-31. Also, the GI50 in the test with SF-268 and in the test with SNB-75 was > 100 µM (inactive) in each case.
Regarding `CC(C)=C[C@@H]1C[C@H](n2cc(C)c(=O)[nH]c2=O)ON1CCO`, the GI50 in the test with OVCAR-5, in the test on SK-MEL-5, with HOP-62, in the test with SR, in the test on Malme-3M and in the test with MOLT-4 was > 100 µM (inactive) each time. Further, the GI50 in the test with COLO 205, with SK-MEL-2, in the test on TK-10, with UACC-62, with IGROV-1 and in the test with HT-29 was > 100 µM (inactive) in each case. In addition, the GI50 in the test with OVCAR-3, in the test on HCT-116, in the test with NCI-H226, in the test on RXF 393, in the test with DU-145 and with UO-31 was > 100 µM (inactive) in each case. Moreover, the GI50 in the test with SF-268 and in the test on SNB-75 was > 100 µM (inactive) each time.
Take `COC(=O)NC(Nc1ccc(C)cc1)(C(F)(F)F)C(F)(F)F`: the GI50 was > 100 µM (inactive) with OVCAR-5; > 100 µM (inactive) in the test with SK-MEL-5; > 100 µM (inactive) with HOP-62; 61.2 µM (inactive) in the test on SR; > 100 µM (inactive) with Malme-3M; > 100 µM (inactive) in the test on MOLT-4. The GI50 in the test with COLO 205, in the test on SK-MEL-2, in the test with TK-10, with UACC-62, in the test on IGROV-1 and in the test on HT-29 was > 100 µM (inactive) each time. Besides, the GI50 in the test with OVCAR-3 was > 100 µM (inactive); with HCT-116 it was > 100 µM (inactive); in the test with NCI-H226 it was > 100 µM (inactive); with RXF 393 it was 0.172 µM (active); in the test on DU-145, > 100 µM (inactive); in the test with UO-31, 18.3 µM (inactive). Moreover, the GI50 in the test with SF-268 and in the test on SNB-75 was > 100 µM (inactive) each time.
In the case of `CCCCCCCCCCC(O)C1CCC(C(O)CCC(O)C2CCC(CCCCCCC[C@H](O)CC3=C[C@@H](C)OC3=O)O2)O1` (stereo not given in full), the GI50 in the test on OVCAR-5 was > 100 µM (inactive); in the test on SK-MEL-5, 0.01 µM (active); in the test on HOP-62 it was > 40.6 µM (inactive); with SR it was 0.01 µM (active); in the test on Malme-3M it was 29.6 µM (inactive); with MOLT-4, 2.02 µM (inactive). Besides, the GI50 in the test with COLO 205 was > 100 µM (inactive); in the test with SK-MEL-2, > 100 µM (inactive); in the test with TK-10 it was 30.3 µM (inactive); in the test on UACC-62, 4.02 µM (inactive); in the test on IGROV-1 it was 31.5 µM (inactive); in the test with HT-29, > 100 µM (inactive). Further, the GI50 is 18.3 µM (inactive) with OVCAR-3; < 0.033 µM (active) in the test with HCT-116; 2.64 µM (inactive) in the test with NCI-H226; 5.81 µM (inactive) in the test with RXF 393; > 10 µM (inactive) in the test with DU-145; 2.25 µM (inactive) in the test with UO-31. For the same molecule, the values for the GI50 with SF-268 and with SNB-75 were 9.23 µM (inactive) and 6.9 µM (inactive), respectively.
As for `COc1ccccc1C1Nn2c(nc3ccccc3c2=O)N1c1ccc(C)cc1` (stereo not given), the GI50 is 10.4 µM (inactive) in the test on OVCAR-5; 7.45 µM (inactive) in the test on SK-MEL-5; 6.32 µM (inactive) with HOP-62; 1.38 µM (inactive) in the test with SR; 14.4 µM (inactive) in the test with Malme-3M; 1.47 µM (inactive) in the test with MOLT-4. In addition, the GI50 with COLO 205 is 6.65 µM (inactive); in the test with SK-MEL-2, 11.4 µM (inactive); with TK-10, 6.41 µM (inactive); with UACC-62, 9.31 µM (inactive); in the test on IGROV-1, 6.34 µM (inactive); in the test on HT-29, 7.78 µM (inactive). Further, the GI50 in the test with OVCAR-3 was 4.65 µM (inactive); in the test with HCT-116 it was 4.23 µM (inactive); in the test with NCI-H226, 2.77 µM (inactive); in the test on RXF 393, 10 µM (inactive); in the test on DU-145 it was 11 µM (inactive); in the test on UO-31 it was 6.73 µM (inactive). Besides, the GI50 with SF-268 was 6.85 µM (inactive); in the test on SNB-75 it was 14.9 µM (inactive).
With `O/N=C1\CCc2cc3c(cc21)CCC3`, the GI50 with OVCAR-5, in the test on SK-MEL-5, in the test with HOP-62, in the test on SR, with Malme-3M and in the test on MOLT-4 was > 100 µM (inactive) in each case. Also, the GI50 in the test with COLO 205, in the test on SK-MEL-2, in the test on TK-10, in the test on UACC-62, in the test with IGROV-1 and with HT-29 was > 100 µM (inactive) throughout. The GI50 in the test on OVCAR-3, with HCT-116, in the test on NCI-H226, in the test with RXF 393, in the test with DU-145 and with UO-31 was > 100 µM (inactive) each time. Also, the GI50 in the test on SF-268 was 97.9 µM (inactive); in the test on SNB-75, 44.3 µM (inactive).
For `O=C1C(Cl)C(c2cc3cc(Br)ccc3nc2Cl)N1c1ccc(F)c(Cl)c1` (stereo not given), the GI50 in the test with OVCAR-5 was 12 µM (inactive); in the test on SK-MEL-5, 9.02 µM (inactive); in the test with HOP-62, 1.76 µM (inactive); in the test on SR it was 1.03 µM (active); with Malme-3M, 11 µM (inactive); in the test with MOLT-4, 0.594 µM (active). Besides, the GI50 in the test with COLO 205 was 6.62 µM (inactive); in the test with SK-MEL-2 it was 8.83 µM (inactive); in the test on TK-10, 6.32 µM (inactive); in the test with UACC-62, 9.12 µM (inactive); in the test with IGROV-1 it was 0.957 µM (active); in the test with HT-29, 10.7 µM (inactive). The GI50 is 4.13 µM (inactive) in the test with OVCAR-3; 7.94 µM (inactive) in the test on HCT-116; 6.7 µM (inactive) in the test with NCI-H226; 5.4 µM (inactive) in the test with RXF 393; 8.02 µM (inactive) in the test on DU-145; 0.118 µM (active) with UO-31. In addition, the GI50 is 2.99 µM (inactive) in the test with SF-268 and 8.61 µM (inactive) in the test on SNB-75.

The values above are taken from ChEMBL document CHEMBL1201862, “PubChem BioAssay data set” (2004).
